Results reported in patent US20120122860A1, “SOLID FORMS OF SULFONAMIDES AND AMINO ACIDS” (Plexxikon, Inc., priority 2009, published 2012).

Key:
B-Raf V600E = B-Raf V600E (Homo sapiens, UniProt P15056, V600E); experiment: Kinase activity assay, B-Raf V600E; assay type: biochemical; settings: read-out: activity toward kinase B-Raf V600E, IC50
Kdr = Kdr (Homo sapiens, UniProt P35968); experiment: Kinase activity assay, Kdr
Src = Src (Homo sapiens, UniProt P12931); experiment: Kinase activity assay, Src
Sequence of Src (P12931 whole entry): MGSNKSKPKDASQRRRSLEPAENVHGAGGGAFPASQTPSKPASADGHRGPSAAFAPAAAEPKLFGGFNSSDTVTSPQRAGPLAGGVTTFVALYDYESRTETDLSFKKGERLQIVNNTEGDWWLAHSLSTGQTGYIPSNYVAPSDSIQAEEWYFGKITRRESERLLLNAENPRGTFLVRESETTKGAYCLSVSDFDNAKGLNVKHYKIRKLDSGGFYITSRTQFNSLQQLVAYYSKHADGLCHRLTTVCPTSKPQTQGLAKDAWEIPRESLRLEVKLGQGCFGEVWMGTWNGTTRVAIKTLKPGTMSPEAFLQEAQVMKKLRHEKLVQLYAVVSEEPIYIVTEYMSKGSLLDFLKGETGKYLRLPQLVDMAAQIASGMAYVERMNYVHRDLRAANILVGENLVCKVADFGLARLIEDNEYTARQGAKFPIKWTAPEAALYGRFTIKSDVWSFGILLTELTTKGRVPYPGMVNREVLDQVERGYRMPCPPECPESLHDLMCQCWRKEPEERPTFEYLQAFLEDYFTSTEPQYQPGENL

A-Raf = molecular target: T1, A-Raf (Homo sapiens, UniProt P10398); experiment: Kinase activity assay, A-Raf
T1 sequence (P10398 1-606): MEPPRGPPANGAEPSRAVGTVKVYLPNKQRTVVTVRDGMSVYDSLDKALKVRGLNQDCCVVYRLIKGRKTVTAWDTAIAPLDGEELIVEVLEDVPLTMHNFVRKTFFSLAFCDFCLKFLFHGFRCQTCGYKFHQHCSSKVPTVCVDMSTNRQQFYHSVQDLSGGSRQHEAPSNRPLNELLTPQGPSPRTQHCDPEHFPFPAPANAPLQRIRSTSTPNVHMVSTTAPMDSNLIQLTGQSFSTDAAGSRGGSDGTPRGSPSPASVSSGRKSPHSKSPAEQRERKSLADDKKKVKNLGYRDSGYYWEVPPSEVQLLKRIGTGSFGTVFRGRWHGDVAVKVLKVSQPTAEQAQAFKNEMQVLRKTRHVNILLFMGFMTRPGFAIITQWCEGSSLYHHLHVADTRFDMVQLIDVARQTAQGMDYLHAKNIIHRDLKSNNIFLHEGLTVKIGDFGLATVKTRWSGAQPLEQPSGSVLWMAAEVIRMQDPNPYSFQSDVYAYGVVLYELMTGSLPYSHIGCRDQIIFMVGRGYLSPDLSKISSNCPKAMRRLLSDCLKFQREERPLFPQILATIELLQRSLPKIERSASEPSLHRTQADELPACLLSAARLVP

C-Raf = C-Raf (Homo sapiens, UniProt P04049); experiment: Kinase activity assay, C-Raf
Sequence of C-Raf (P04049 whole entry): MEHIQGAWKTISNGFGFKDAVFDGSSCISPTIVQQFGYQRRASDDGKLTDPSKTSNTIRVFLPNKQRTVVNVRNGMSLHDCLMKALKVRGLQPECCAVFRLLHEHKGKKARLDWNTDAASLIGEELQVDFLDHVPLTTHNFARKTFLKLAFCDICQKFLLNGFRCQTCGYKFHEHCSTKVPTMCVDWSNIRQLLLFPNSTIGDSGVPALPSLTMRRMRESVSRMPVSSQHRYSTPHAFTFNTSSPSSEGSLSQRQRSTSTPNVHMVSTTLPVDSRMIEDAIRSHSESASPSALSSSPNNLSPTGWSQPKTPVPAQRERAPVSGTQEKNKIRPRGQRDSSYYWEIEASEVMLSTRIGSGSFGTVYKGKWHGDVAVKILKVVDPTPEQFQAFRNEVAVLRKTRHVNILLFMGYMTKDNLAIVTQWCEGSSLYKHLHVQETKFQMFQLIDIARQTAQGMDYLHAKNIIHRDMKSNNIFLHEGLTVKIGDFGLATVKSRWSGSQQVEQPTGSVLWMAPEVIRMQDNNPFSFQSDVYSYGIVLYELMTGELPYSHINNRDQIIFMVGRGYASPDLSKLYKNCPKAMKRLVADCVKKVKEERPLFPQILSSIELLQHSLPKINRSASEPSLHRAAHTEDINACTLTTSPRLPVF

MAP4K4 = MAP4K4 (Homo sapiens, UniProt O95819); experiment: Kinase activity assay, MAP4K4
Sequence of MAP4K4 (O95819 whole entry): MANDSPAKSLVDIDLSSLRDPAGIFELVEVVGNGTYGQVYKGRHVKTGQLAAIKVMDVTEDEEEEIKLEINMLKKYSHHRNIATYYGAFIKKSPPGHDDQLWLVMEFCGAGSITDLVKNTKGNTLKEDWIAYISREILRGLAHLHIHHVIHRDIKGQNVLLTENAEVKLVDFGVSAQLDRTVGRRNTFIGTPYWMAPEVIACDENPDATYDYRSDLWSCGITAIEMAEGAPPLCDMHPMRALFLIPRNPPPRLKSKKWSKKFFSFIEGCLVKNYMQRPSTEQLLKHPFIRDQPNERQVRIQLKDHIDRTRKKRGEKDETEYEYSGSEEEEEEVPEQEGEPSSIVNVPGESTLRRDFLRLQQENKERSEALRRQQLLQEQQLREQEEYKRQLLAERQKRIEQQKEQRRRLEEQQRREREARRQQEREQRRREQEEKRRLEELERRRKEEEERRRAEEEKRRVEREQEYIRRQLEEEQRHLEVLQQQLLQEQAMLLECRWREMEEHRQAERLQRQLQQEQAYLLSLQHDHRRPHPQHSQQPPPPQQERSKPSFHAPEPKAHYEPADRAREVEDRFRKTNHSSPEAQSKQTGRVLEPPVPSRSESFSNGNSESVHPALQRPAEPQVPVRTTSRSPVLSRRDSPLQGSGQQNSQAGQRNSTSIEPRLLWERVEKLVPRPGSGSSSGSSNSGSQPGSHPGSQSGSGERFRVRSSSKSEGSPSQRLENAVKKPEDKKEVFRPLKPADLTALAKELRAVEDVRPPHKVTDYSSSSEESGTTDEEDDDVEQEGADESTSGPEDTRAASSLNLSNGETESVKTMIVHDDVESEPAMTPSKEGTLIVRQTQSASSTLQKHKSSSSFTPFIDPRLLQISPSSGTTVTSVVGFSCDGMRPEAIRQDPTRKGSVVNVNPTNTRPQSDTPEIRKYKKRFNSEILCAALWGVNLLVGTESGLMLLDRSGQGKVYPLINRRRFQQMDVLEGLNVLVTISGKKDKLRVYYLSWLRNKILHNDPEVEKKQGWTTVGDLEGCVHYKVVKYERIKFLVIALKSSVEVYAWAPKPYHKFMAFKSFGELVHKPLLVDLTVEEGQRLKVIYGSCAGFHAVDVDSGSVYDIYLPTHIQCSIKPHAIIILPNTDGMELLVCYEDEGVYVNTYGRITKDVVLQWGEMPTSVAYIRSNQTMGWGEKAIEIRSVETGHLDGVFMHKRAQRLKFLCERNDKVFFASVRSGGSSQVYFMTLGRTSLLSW

B-Raf = B-Raf (Homo sapiens, UniProt P15056); experiment: Kinase activity assay, B-Raf; assay type: biochemical; settings: read-out: activity toward kinase B-Raf, IC50
Sequence of B-Raf (P15056 whole entry): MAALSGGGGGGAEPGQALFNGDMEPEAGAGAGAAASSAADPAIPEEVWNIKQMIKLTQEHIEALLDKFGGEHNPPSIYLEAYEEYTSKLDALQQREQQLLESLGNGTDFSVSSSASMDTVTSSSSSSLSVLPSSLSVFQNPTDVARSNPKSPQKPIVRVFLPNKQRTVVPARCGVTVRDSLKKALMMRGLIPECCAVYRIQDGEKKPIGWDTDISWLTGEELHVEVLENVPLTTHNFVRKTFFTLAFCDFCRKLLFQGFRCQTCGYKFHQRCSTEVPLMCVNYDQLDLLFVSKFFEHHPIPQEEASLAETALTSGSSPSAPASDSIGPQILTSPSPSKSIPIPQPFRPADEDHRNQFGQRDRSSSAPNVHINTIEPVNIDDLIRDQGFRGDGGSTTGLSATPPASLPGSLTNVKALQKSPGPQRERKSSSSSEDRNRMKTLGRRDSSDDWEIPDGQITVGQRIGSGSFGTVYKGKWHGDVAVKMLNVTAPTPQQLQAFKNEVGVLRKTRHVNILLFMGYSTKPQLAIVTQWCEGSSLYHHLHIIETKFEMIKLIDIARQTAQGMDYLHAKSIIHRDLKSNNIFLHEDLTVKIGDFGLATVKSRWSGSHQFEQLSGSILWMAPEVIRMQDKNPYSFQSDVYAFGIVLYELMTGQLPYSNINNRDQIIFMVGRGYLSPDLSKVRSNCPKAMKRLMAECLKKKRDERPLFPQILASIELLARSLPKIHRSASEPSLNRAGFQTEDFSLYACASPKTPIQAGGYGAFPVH

Fms = Fms (Homo sapiens, UniProt P07333); experiment: Kinase activity assay, Fms
Sequence of Fms (P07333 20-972): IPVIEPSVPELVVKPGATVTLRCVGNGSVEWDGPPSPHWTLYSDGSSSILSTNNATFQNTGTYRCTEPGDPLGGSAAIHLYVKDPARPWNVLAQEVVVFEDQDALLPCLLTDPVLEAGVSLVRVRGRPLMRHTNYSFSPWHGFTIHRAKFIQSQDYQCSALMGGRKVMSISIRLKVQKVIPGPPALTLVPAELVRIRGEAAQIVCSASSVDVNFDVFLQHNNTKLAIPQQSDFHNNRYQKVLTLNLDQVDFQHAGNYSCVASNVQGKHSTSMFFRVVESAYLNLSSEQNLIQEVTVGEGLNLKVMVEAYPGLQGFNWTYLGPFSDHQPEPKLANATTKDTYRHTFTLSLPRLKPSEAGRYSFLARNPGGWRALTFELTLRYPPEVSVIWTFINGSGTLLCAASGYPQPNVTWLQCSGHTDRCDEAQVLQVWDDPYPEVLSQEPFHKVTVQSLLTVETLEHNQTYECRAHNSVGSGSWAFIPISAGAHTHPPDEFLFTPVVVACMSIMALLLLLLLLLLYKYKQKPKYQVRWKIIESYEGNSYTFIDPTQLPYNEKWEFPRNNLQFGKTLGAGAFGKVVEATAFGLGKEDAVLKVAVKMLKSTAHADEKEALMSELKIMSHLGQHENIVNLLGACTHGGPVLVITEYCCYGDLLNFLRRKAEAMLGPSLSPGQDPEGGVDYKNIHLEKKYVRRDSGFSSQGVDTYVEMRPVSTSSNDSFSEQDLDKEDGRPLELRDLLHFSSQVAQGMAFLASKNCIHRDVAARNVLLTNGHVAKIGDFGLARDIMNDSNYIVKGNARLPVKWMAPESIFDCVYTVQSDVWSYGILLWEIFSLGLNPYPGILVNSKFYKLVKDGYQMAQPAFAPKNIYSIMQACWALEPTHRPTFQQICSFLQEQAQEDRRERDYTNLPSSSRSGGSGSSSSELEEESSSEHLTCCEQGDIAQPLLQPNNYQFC

Kit = Kit (Homo sapiens, UniProt P10721); experiment: Kinase activity assay, Kit
Sequence of Kit (P10721 26-976): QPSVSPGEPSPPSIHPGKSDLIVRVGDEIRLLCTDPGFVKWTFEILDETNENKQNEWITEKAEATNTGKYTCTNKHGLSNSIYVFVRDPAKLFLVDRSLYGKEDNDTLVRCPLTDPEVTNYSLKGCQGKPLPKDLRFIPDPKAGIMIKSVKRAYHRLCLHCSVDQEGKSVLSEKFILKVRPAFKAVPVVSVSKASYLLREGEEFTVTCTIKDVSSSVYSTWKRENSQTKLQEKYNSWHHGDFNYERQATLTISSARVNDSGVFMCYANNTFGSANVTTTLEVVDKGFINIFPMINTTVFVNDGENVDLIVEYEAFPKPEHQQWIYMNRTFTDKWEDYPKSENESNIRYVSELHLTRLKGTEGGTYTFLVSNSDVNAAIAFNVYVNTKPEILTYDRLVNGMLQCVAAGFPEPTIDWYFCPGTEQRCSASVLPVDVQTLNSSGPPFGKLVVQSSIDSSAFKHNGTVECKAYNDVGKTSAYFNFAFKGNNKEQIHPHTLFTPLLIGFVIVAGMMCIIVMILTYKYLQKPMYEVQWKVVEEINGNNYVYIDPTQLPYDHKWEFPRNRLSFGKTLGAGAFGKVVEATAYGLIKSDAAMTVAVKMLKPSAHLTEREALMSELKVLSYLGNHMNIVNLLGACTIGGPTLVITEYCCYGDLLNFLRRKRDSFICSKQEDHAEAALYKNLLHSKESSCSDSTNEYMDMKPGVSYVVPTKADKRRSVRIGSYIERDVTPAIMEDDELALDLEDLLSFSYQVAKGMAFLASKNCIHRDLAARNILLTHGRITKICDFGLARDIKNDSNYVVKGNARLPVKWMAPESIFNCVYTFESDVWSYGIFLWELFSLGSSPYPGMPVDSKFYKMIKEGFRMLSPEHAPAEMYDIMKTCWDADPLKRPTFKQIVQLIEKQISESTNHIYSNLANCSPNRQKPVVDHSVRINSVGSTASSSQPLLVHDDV

Measured: IC50

O=C(c1c(F)ccc(NS(=O)(=O)c2ncn[nH]2)c1F)c1c[nH]c2ncc(Cl)cc12 [P-2062, 2H-[1,2,4]Triazole-3-sulfonic acid [3-(5-chloro-1H-pyrrolo[2,3-b]pyridine-3-carbonyl)-2,4-difluoro-phenyl]-amide]
not listed: B-Raf | Fms | Kit
≤ 10 µM: all other assays above

N#Cc1cnc2[nH]cc(C(=O)c3c(F)ccc(NS(=O)(=O)c4ncn[nH]4)c3F)c2c1 [P-2064, 2H-[1,2,4]Triazole-3-sulfonic acid [3-(5-cyano-1H-pyrrolo[2,3-b]pyridine-3-carbonyl)-2,4-difluoro-phenyl]-amide]
≤ 10 µM: B-Raf V600E | Kdr | A-Raf | C-Raf | MAP4K4

Cc1cnc2[nH]cc(C(=O)c3c(F)ccc(NS(=O)(=O)c4ncn[nH]4)c3F)c2c1 [P-2065, 2H-[1,2,4]Triazole-3-sulfonic acid [2,4-difluoro-3-(5-methyl-1H-pyrrolo[2,3-b]pyridine-3-carbonyl)-phenyl]-amide]
not listed: B-Raf | Fms | Kit
≤ 10 µM: all other assays above

O=C(c1c(F)ccc(NS(=O)(=O)c2ncn[nH]2)c1F)c1c[nH]c2nccc(Cl)c12 [P-2066, 2H-[1,2,4]Triazole-3-sulfonic acid [3-(4-chloro-1H-pyrrolo[2,3-b]pyridine-3-carbonyl)-2,4-difluoro-phenyl]-amide]
not listed: Src | Fms | Kit
≤ 10 µM: all other assays above

O=C(c1cc(NS(=O)(=O)c2cccc(OC(F)(F)F)c2)ccc1F)c1c[nH]c2ncccc12 [P-2117, N-[4-Fluoro-3-(1H-pyrrolo[2,3-b]pyridine-3-carbonyl)-phenyl]-3-trifluoromethoxy-benzenesulfonamide]
not listed: B-Raf V600E | Src | MAP4K4
≤ 10 µM: all other assays above

CCCS(=O)(=O)Nc1ccc(F)c(C(=O)c2c[nH]c3ncc(C(F)(F)F)cc23)c1F [P-2182, Propane-1-sulfonic acid [2,4-difluoro-3-(5-trifluoromethyl-1H-pyrrolo[2,3-b]pyridine-3-carbonyl)-phenyl]-amide]
not listed: Src | Fms
≤ 10 µM: all other assays above

CCCS(=O)(=O)Nc1ccc(F)c(C(=O)c2c[nH]c3ncc(CN4CCOCC4)cc23)c1F [P-2244, Propane-1-sulfonic acid [2,4-difluoro-3-(5-morpholin-4-ylmethyl-1H-pyrrolo[2,3-b]pyridine-3-carbonyl)-phenyl]-amide]
≤ 10 µM: B-Raf V600E | B-Raf | A-Raf | C-Raf | MAP4K4

COc1cnc2[nH]cc(C(=O)c3c(F)ccc(NS(=O)(=O)C(C)C)c3F)c2c1 [P-2273, Propane-2-sulfonic acid [2,4-difluoro-3-(5-methoxy-1H-pyrrolo[2,3-b]pyridine-3-carbonyl)-phenyl]-amide]
not listed: MAP4K4
≤ 10 µM: all other assays above

CCS(=O)(=O)Nc1ccc(F)c(C(=O)c2c[nH]c3ncc(Cl)cc23)c1F [P-2274, Ethanesulfonic acid [3-(5-chloro-1H-pyrrolo[2,3-b]pyridine-3-carbonyl)-2,4-difluoro-phenyl]-amide]
not listed: Src | Fms
≤ 10 µM: all other assays above

COc1cnc2[nH]cc(C(=O)c3c(F)ccc(NS(C)(=O)=O)c3F)c2c1 [P-2288, N-[2,4-Difluoro-3-(5-methoxy-1H-pyrrolo[2,3-b]pyridine-3-carbonyl)-phenyl]-methanesulfonamide]
not listed: Src | B-Raf | Fms
≤ 10 µM: all other assays above

Cc1cnc2[nH]cc(C(=O)c3c(F)ccc(NS(C)(=O)=O)c3F)c2c1 [P-2289, N-[2,4-Difluoro-3-(5-methyl-1H-pyrrolo[2,3-b]pyridine-3-carbonyl)-phenyl]-methanesulfonamide]
not listed: Src | B-Raf | Fms
≤ 10 µM: all other assays above

CS(=O)(=O)Nc1ccc(F)c(C(=O)c2c[nH]c3ncc(Cl)cc23)c1F [P-2291, N-[3-(5-Chloro-1H-pyrrolo[2,3-b]pyridine-3-carbonyl)-2,4-difluoro-phenyl]-methanesulfonamide]
not listed: Src | B-Raf | Fms
≤ 10 µM: all other assays above

CC(C)CS(=O)(=O)Nc1ccc(F)c(C(=O)c2c[nH]c3ncc(Cl)cc23)c1F [P-2304, 2-Methyl-propane-1-sulfonic acid [3-(5-chloro-1H-pyrrolo[2,3-b]pyridine-3-carbonyl)-2,4-difluoro-phenyl]-amide]
not listed: MAP4K4
≤ 10 µM: all other assays above

O=C(c1c(F)ccc(NS(=O)(=O)C(F)(F)F)c1F)c1c[nH]c2ncc(-c3ccc(Cl)cc3)cc12 [P-2343, N-{3-[5-(4-Chloro-phenyl)-1H-pyrrolo[2,3-b]pyridine-3-carbonyl]-2,4-difluoro-phenyl}-C,C,C-trifluoro-methanesulfonamide]
not listed: MAP4K4
≤ 10 µM: all other assays above

Cc1cnc2[nH]cc(C(=O)c3c(F)ccc(NS(=O)(=O)C4CCC4)c3F)c2c1 [P-2362, Cyclobutanesulfonic acid [2,4-difluoro-3-(5-methyl-1H-pyrrolo[2,3-b]pyridine-3-carbonyl)-phenyl]-amide]
≤ 10 µM: B-Raf V600E | Kdr | A-Raf | C-Raf | MAP4K4

N#Cc1cnc2[nH]cc(C(=O)c3c(F)ccc(NS(=O)(=O)C4CCCCC4)c3F)c2c1 [P-2366, Cyclohexanesulfonic acid [3-(5-cyano-1H-pyrrolo[2,3-b]pyridine-3-carbonyl)-2,4-difluoro-phenyl]-amide]
not listed: Kdr | Src | Fms
≤ 10 µM: all other assays above

O=C(c1c(F)ccc(NS(=O)(=O)N2CCOCC2)c1F)c1c[nH]c2ncc(Cl)cc12 [P-2390, Morpholine-4-sulfonic acid [3-(5-chloro-1H-pyrrolo[2,3-b]pyridine-3-carbonyl)-2,4-difluoro-phenyl]-amide]
not listed: C-Raf | MAP4K4 | B-Raf
≤ 10 µM: all other assays above
